In ChEMBL document CHEMBL3882738, “Dimethylarginine Dimethylaminohydrolase inhibitors and methods of use thereof” (2014):
pIC50: −log10 of the molar value. The source made the active and inactive calls. The calls are words filed in the database; no cut-off is given here.

Assays:
[1] = target: T1, N(G),N(G)-dimethylarginine dimethylaminohydrolase 1 (Homo sapiens, UniProt O94760); experiment: Inhibition of recombinant human DDAH1 expressed in Escherichia coli BL21 Star (DE3) using SMTC as substrate assessed as decrease in L-citrulline and methanethiol production by CPM-based fluorimetric assay
T1 sequence (O94760 whole entry): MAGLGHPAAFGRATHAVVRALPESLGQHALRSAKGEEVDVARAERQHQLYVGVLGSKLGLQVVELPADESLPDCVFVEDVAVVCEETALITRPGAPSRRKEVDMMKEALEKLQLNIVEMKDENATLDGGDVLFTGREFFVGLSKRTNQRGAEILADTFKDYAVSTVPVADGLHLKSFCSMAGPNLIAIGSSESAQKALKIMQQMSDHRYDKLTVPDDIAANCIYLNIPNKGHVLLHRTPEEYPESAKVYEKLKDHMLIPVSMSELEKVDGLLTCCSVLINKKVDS

[2] = target: T1, N(G),N(G)-dimethylarginine dimethylaminohydrolase 1; experiment: Inhibition of recombinant human DDAH1 expressed in Escherichia coli BL21 Star (DE3) using SMTC as substrate assessed as decrease in L-citrulline and methanethiol production at 50 uM by CPM-based fluorimetric assay
[3] = target: T1, N(G),N(G)-dimethylarginine dimethylaminohydrolase 1; experiment: Inhibition of DDAH in human A549 cells assessed as decrease in serum-stimulated cell proliferation at 20 uM preincubated for 2 hrs followed by fetal bovine serum addition measured 24 hrs post compound treatment by BrdU incorporation assay; type: cell-based
[4] = target: T1, N(G),N(G)-dimethylarginine dimethylaminohydrolase 1; experiment: Inhibition of recombinant human DDAH1 expressed in Escherichia coli BL21 Star (DE3) using ADMA as substrate assessed as decrease in citrulline production at 50 uM after 4 hrs by colorimetric method
[5] = target: T1, N(G),N(G)-dimethylarginine dimethylaminohydrolase 1; experiment: Inhibition of recombinant human DDAH1 expressed in Escherichia coli BL21 Star (DE3) using ADMA as substrate assessed as decrease in citrulline production at 50 uM preincubated with protein followed by substrate addition by colorimetric method
[6] = target: T1, N(G),N(G)-dimethylarginine dimethylaminohydrolase 1; experiment: Inhibition of recombinant human DDAH1 expressed in Escherichia coli BL21 Star (DE3) using ADMA as substrate assessed as decrease in citrulline production after 4 hrs by colorimetric method
[7] = target: T1, N(G),N(G)-dimethylarginine dimethylaminohydrolase 1; experiment: Inhibition of DDAH in human A549 cells assessed as increase in intracellular ADMA levels at 10 to 100 uM after 24 hrs by ELISA relative to vehicle-treated control; type: cell-based
[8] = target: T1, N(G),N(G)-dimethylarginine dimethylaminohydrolase 1; experiment: Inhibition of DDAH in lung fibroblasts isolated from late stage idiopathic pulmonary fibrosis patient assessed as reduction of TGF-beta-induced acid-soluble collagen levels at 100 uM after 24 hrs by sircol collagen assay
[9] = target: N(G),N(G)-dimethylarginine dimethylaminohydrolase 1 (Mus musculus) (UniProt Q9CWS0); experiment: Inhibition of DDAH in mouse MLE12 cells assessed as decrease in serum-stimulated cell proliferation at 3 to 100 uM preincubated for 2 hrs followed by fetal bovine serum addition measured 24 hrs post compound treatment by BrdU incorporation assay; type: cell-based
Sequence of N(G),N(G)-dimethylarginine dimethylaminohydrolase 1 (Mus musculus) (Q9CWS0 whole entry): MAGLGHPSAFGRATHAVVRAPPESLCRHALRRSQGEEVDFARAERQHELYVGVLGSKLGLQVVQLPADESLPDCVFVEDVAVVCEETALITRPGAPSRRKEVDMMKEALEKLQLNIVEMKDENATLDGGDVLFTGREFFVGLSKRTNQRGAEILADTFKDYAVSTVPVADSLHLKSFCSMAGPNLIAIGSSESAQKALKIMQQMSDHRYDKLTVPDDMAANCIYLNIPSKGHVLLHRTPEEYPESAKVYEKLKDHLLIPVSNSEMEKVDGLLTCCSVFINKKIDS

[10] = target: T1, N(G),N(G)-dimethylarginine dimethylaminohydrolase 1; experiment: Inhibition of DDAH in human A549 cells assessed as decrease in serum-stimulated cell proliferation at 3 to 100 uM preincubated for 2 hrs followed by fetal bovine serum addition measured 24 hrs post compound treatment by BrdU incorporation assay; type: cell-based
[11] = target: T1, N(G),N(G)-dimethylarginine dimethylaminohydrolase 1; experiment: Inhibition of DDAH in human A549 cells assessed as reduction in intracellular nitric oxide levels at 10 to 100 uM after 24 hrs by Griess assay; type: cell-based
[12] = Cytotoxicity against human A549 cells up to 300 uM by lactate dehydrogenase release assay; type: cell-based
[13] = target: T1, N(G),N(G)-dimethylarginine dimethylaminohydrolase 1; experiment: Inhibition of DDAH in human A549 cells assessed as reduction of A23187-induced apoptosis by measuring […] in mono and oligo nucleosome content at 20 to 100 uM after 24 hrs; type: cell-based
[14] = target: T1, N(G),N(G)-dimethylarginine dimethylaminohydrolase 1; experiment: Inhibition of DDAH in human A549 cells assessed as downregulation of iNOS expression at 50 to 100 uM after 24 hrs by Western blot method; type: cell-based
[15] = target: T1, N(G),N(G)-dimethylarginine dimethylaminohydrolase 1; experiment: Reversible inhibition of recombinant human DDAH1 expressed in Escherichia coli BL21 Star (DE3) using SMTC as substrate assessed as decrease in L-citrulline and methanethiol production at 1 to 100 times IC50 preincubated for 1 hr followed by 100 fold dilution by CPM-based fluorimetric assay
[16] = target: T1, N(G),N(G)-dimethylarginine dimethylaminohydrolase 1; experiment: Inhibition of DDAH in lung fibroblasts isolated from late stage idiopathic pulmonary fibrosis patient assessed as reduction of TGF-beta-induced acid-soluble collagen levels at 50 uM after 24 hrs by sircol collagen assay
[17] = Cytotoxicity against mouse MLE12 cells up to 300 uM by lactate dehydrogenase release assay; type: cell-based
[18] = target: T1, N(G),N(G)-dimethylarginine dimethylaminohydrolase 1; experiment: Inhibition of DDAH in HMEC1 assessed as increase in intracellular ADMA levels at 20 uM after 24 hrs by ELISA relative to vehicle-treated control; type: cell-based
[19] = target: T1, N(G),N(G)-dimethylarginine dimethylaminohydrolase 1; experiment: Inhibition of DDAH in bronchial epithelial cells isolated from chronic obstructive pulmonary disease patient assessed as downregulation of TNF-alpha gene expression at 5 to 50 uM after 24 hrs relative to vehicle-treated control; type: cell-based; conditions: Epithelial cell
[20] = target: T1, N(G),N(G)-dimethylarginine dimethylaminohydrolase 1; experiment: Inhibition of DDAH in fibroblasts isolated from idiopathic pulmonary fibrosis patient assessed as downregulation of BMP2 gene expression at 5 to 50 uM relative to vehicle-treated control
[21] = target: T1, N(G),N(G)-dimethylarginine dimethylaminohydrolase 1; experiment: Inhibition of DDAH in fibroblasts isolated from idiopathic pulmonary fibrosis patient assessed as downregulation of ITGB3 gene expression at 5 to 50 uM relative to vehicle-treated control
[22] = target: T1, N(G),N(G)-dimethylarginine dimethylaminohydrolase 1; experiment: Inhibition of DDAH in fibroblasts isolated from chronic obstructive pulmonary disease patient assessed as upregulation of HO1 gene expression at 5 to 50 uM after 24 hrs relative to vehicle-treated control
[23] = target: T1, N(G),N(G)-dimethylarginine dimethylaminohydrolase 1; experiment: Inhibition of DDAH in fibroblasts isolated from idiopathic pulmonary fibrosis patient assessed as downregulation of ITGB5 gene expression at 5 to 50 uM relative to vehicle-treated control
[24] = target: T1, N(G),N(G)-dimethylarginine dimethylaminohydrolase 1; experiment: Inhibition of DDAH in fibroblasts isolated from idiopathic pulmonary fibrosis patient assessed as downregulation of TGFBR1 gene expression at 5 to 50 uM relative to vehicle-treated control
[25] = target: T1, N(G),N(G)-dimethylarginine dimethylaminohydrolase 1; experiment: Inhibition of DDAH in fibroblasts isolated from idiopathic pulmonary fibrosis patient assessed as downregulation of MMP8 gene expression at 5 to 50 uM relative to vehicle-treated control
[26] = target: T1, N(G),N(G)-dimethylarginine dimethylaminohydrolase 1; experiment: Inhibition of DDAH in fibroblasts isolated from idiopathic pulmonary fibrosis patient assessed as downregulation of SMAD6 gene expression at 5 to 50 uM relative to vehicle-treated control
[27] = target: T1, N(G),N(G)-dimethylarginine dimethylaminohydrolase 1; experiment: Inhibition of DDAH in bronchial epithelial cells isolated from chronic obstructive pulmonary disease patient assessed as upregulation of HO1 gene expression at 5 to 50 uM after 24 hrs relative to vehicle-treated control; type: cell-based; conditions: Epithelial cell
[28] = target: T1, N(G),N(G)-dimethylarginine dimethylaminohydrolase 1; experiment: Inhibition of DDAH in fibroblasts isolated from idiopathic pulmonary fibrosis patient assessed as downregulation of BMPR2 gene expression at 5 to 50 uM relative to vehicle-treated control
[29] = target: T1, N(G),N(G)-dimethylarginine dimethylaminohydrolase 1; experiment: Inhibition of DDAH in fibroblasts isolated from idiopathic pulmonary fibrosis patient assessed as downregulation of BMP4 gene expression at 5 to 50 uM relative to vehicle-treated control
[30] = target: T1, N(G),N(G)-dimethylarginine dimethylaminohydrolase 1; experiment: Inhibition of DDAH in fibroblasts isolated from late idiopathic pulmonary fibrosis patient assessed as upregulation of HO1 gene expression at 50 uM relative to control
[31] = target: T1, N(G),N(G)-dimethylarginine dimethylaminohydrolase 1; experiment: Inhibition of DDAH in fibroblasts isolated from idiopathic pulmonary fibrosis patient assessed as downregulation of ITGB8 gene expression at 5 to 50 uM relative to vehicle-treated control
[32] = target: T1, N(G),N(G)-dimethylarginine dimethylaminohydrolase 1; experiment: Inhibition of DDAH in fibroblasts isolated from early idiopathic pulmonary fibrosis patient assessed as upregulation of HO1 gene expression at 50 uM relative to control
[33] = target: T1, N(G),N(G)-dimethylarginine dimethylaminohydrolase 1; experiment: Inhibition of DDAH in fibroblasts isolated from idiopathic pulmonary fibrosis patient assessed as downregulation of ITGB6 gene expression at 5 to 50 uM relative to vehicle-treated control
[34] = target: T1, N(G),N(G)-dimethylarginine dimethylaminohydrolase 1; experiment: Inhibition of DDAH in fibroblasts isolated from idiopathic pulmonary fibrosis patient assessed as downregulation of ITGB1 gene expression at 5 to 50 uM relative to vehicle-treated control
[35] = target: T1, N(G),N(G)-dimethylarginine dimethylaminohydrolase 1; experiment: Inhibition of DDAH in fibroblasts isolated from idiopathic pulmonary fibrosis patient assessed as downregulation of TGFB1 gene expression at 5 to 50 uM relative to vehicle-treated control
[36] = target: T1, N(G),N(G)-dimethylarginine dimethylaminohydrolase 1; experiment: Inhibition of DDAH in bronchial epithelial cells isolated from chronic obstructive pulmonary disease patient assessed as downregulation of TRPV1 gene expression at 5 to 50 uM after 24 hrs relative to vehicle-treated control; type: cell-based; conditions: Epithelial cell
[37] = target: T1, N(G),N(G)-dimethylarginine dimethylaminohydrolase 1; experiment: Inhibition of DDAH in fibroblasts isolated from idiopathic pulmonary fibrosis patient assessed as downregulation of […] gene expression at 5 to 50 uM relative to vehicle-treated control
[38] = target: T1, N(G),N(G)-dimethylarginine dimethylaminohydrolase 1; experiment: Inhibition of DDAH in fibroblasts isolated from idiopathic pulmonary fibrosis patient assessed as downregulation of TGFBR2 gene expression at 5 to 50 uM relative to vehicle-treated control
[39] = target: T1, N(G),N(G)-dimethylarginine dimethylaminohydrolase 1; experiment: Inhibition of DDAH in fibroblasts isolated from idiopathic pulmonary fibrosis patient assessed as downregulation of BMPR1B gene expression at 5 to 50 uM relative to vehicle-treated control
[40] = target: T1, N(G),N(G)-dimethylarginine dimethylaminohydrolase 1; experiment: Inhibition of DDAH in fibroblasts isolated from idiopathic pulmonary fibrosis patient assessed as downregulation of ITGA5 gene expression at 5 to 50 uM relative to vehicle-treated control
[41] = target: Transforming growth factor beta (Homo sapiens) (UniProt P01137+P61812+P10600); experiment: Inhibition of TGF-beta-induced acid-soluble collagen levels in lung fibroblasts isolated from late stage idiopathic pulmonary fibrosis patient at 20 uM after 24 hrs by sircol collagen assay; type: protein assay
Sequence of Transforming growth factor beta (Homo sapiens) (P01137 whole entry, looked up): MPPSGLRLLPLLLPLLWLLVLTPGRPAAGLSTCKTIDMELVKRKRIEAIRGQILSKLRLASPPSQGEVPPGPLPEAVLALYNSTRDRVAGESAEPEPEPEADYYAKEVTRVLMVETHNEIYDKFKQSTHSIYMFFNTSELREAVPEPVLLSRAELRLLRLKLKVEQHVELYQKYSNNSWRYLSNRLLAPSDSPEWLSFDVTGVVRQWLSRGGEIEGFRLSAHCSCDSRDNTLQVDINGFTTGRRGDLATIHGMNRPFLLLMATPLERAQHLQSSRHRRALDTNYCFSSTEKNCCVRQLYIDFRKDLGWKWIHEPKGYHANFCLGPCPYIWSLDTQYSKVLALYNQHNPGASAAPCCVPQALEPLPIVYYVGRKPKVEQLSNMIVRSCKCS
Sequence of Transforming growth factor beta (Homo sapiens) (P10600 whole entry, looked up): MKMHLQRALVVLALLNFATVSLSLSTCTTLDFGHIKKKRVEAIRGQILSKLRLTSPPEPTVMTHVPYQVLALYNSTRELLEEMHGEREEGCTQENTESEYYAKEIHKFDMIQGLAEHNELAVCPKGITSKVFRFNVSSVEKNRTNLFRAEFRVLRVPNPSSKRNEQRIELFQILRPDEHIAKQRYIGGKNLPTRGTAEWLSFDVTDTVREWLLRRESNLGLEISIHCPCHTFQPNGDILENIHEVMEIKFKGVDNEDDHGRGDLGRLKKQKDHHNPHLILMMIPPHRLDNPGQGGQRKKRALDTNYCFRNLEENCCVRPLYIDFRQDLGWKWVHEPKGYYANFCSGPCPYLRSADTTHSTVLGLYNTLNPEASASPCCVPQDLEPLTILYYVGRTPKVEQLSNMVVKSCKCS
Sequence of Transforming growth factor beta (Homo sapiens) (P61812 whole entry, looked up): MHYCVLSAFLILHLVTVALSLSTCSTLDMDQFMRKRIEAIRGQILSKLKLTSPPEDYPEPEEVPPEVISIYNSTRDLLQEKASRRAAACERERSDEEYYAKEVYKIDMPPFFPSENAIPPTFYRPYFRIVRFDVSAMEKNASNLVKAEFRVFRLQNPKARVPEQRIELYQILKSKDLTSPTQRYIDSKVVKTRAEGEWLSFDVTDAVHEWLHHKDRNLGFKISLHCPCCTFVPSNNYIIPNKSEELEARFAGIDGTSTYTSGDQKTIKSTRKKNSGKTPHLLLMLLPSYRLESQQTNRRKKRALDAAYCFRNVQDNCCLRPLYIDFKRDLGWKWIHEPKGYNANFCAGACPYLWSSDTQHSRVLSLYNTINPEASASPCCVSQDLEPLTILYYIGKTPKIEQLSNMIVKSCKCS

[42] = target: T1, N(G),N(G)-dimethylarginine dimethylaminohydrolase 1; conditions: A549, 50 to 100 uM
Description: Inhibition of DDAH in human A549 cells assessed as decrease in serum-stimulated cell proliferation at 50 to 100 uM preincubated for 2 hrs followed by fetal bovine serum addition measured 24 hrs post compound treatment by BrdU incorporation assay

[43] = target: N(G),N(G)-dimethylarginine dimethylaminohydrolase 1 (Mus musculus) (UniProt Q9CWS0); experiment: Inhibition of DDAH in mouse MLE12 cells assessed as decrease in serum-stimulated cell proliferation at 50 to 100 uM preincubated for 2 hrs followed by fetal bovine serum addition measured 24 hrs post compound treatment by BrdU incorporation assay; type: cell-based
[44] = target: T1, N(G),N(G)-dimethylarginine dimethylaminohydrolase 1; experiment: Inhibition of DDAH in lung fibroblasts isolated from late stage idiopathic pulmonary fibrosis patient assessed as reduction of TGF-beta-induced acid-soluble collagen levels at 20 uM after 24 hrs by sircol collagen assay

## 4-[sequence] ACID
[1]
  inhibition: Active

## O=c1c2ccccc2[se]n1-c1ccccc1
[1]
  inhibition: Active

## COCCCOc1ccnc(C[S+]([O-])c2nc3ccccc3[nH]2)c1C (stereo not drawn)
[2]
  inhibition: Active
[3]
  inhibition: Active
[4]
  inhibition: Active
[5]
  inhibition: Active

## COc1ccc2[nH]c([S+]([O-])Cc3ncc(C)c(OC)c3C)nc2n1 (stereo not drawn)
[6]
  inhibition: Dose-dependent effect
[4]
  inhibition: Active
[5]
  inhibition: Active

## CP(=O)(O)c1nc2ccccc2s1
[6]
  pIC50: 5.00

## COc1ccc2[nH]c([S+]([O-])Cc3ncc(C)c(OC)c3C)nc2c1 (stereo not drawn) [OMEPRAZOLE]
[7]
  inhibition: Active
[2]
  inhibition: Active
[8]
  inhibition: Active
[6]
  pIC50: 4.07 to 4.70
  inhibition: Dose-dependent effect
[9]
  inhibition: Active
[10]
  inhibition: Active
[11]
  inhibition: Active
[12]
  Activity: Non-Toxic
[13]
  inhibition: Active
[14]
  inhibition: Active
[15]
  inhibition: Active
[16]
  inhibition: Active
[17]
  Activity: Non-Toxic
[4]
  inhibition: Active
[5]
  inhibition: Active

## COc1ccnc(C[S+]([O-])c2nc3cc(OC(F)F)ccc3[nH]2)c1OC (stereo not drawn) [PANTOPRAZOLE]
[6]
  pIC50: 4.20

## N=C1Sc2ccccc2C2=NCCCN12
[1]
  inhibition: Dose-dependent effect
[18]
  inhibition: 84%
[2]
  inhibition: Active
[4]
  inhibition: Active

## COc1ccc2[nH]c([S@@+]([O-])Cc3ncc(C)c(OC)c3C)nc2c1
[19]
  inhibition: Active
[20]
  inhibition: Active
[21]
  inhibition: Active
[22]
  fold change (FC): 10
[23]
  inhibition: Active
[24]
  inhibition: Active
[18]
  inhibition: 37%
[25]
  inhibition: Active
[2]
  inhibition: Active
[26]
  inhibition: Active
[27]
  fold change (FC): 4
[28]
  inhibition: Active
[29]
  inhibition: Active
[30]
  fold change (FC): 2.5
[3]
  inhibition: Active
[31]
  inhibition: Active
[32]
  fold change (FC): 5
[33]
  inhibition: Active
[34]
  inhibition: Active
[35]
  inhibition: Active
[36]
  inhibition: Active
[37]
  inhibition: Active
[38]
  inhibition: Active
[39]
  inhibition: Active
[40]
  inhibition: Active
[4]
  inhibition: Active
[5]
  inhibition: Active

## Cc1cccc(-c2nn(C(=S)Nc3ccccc3)cc2-c2ccnc3ccccc23)n1
[41]
  inhibition: Active

## CC1=CC(=O)C=C(C)C1=NS(=O)(=O)c1ccccc1
[1]
  pIC50: 5.04

## COCCNC(=N)NCCC[C@H](N)C(=O)O
[18]
  inhibition: 68%
[42]
  inhibition: Active
[16]
  inhibition: Active
[43]
  inhibition: Active

## C/N=c1\nc(-c2ccccc2)n(-c2ccccc2)s1
[1]
  pIC50: 4.88

## Cc1c(OCC(F)(F)F)ccnc1C[S+]([O-])c1nc2ccccc2[nH]1 (stereo not drawn)
[2]
  inhibition: Active
[6]
  inhibition: Dose-dependent effect
[3]
  inhibition: Active
[44]
  inhibition: Active
[4]
  inhibition: Active
[5]
  inhibition: Active

## CC1=CC(=O)C(Cl)=C(C)/C1=N/S(=O)(=O)c1ccc(C)cc1
[1]
  pIC50: 5.26

## PHENYLMERCURIC ACETATE
[1]
  pIC50: > 6.11
